Laboratory results reported in US10870635B2, “Compounds and their use as BACE1 inhibitors” (ALLGENESIS BIOTHERAPEUTICS, INC., priority 2015, dated 2020).
Like-named read-outs stand apart in the source and are kept apart here.

Columns and labels:
[1] = test system: cellular production of amyloid β peptide (Aβ40) in 7PA2 CHO cells; test: Cell amyloid-beta production assay (MSD electrochemiluminescence immunoassay); type: cell-based; conditions: 12 hours incubation, read-out: Cell Abeta40 IC50
Excerpt: Amyloid-β (Aβ) is a 33-42-amino acid post-proteolytic peptide generated as the result of the sequential cleavage of amyloid precursor protein (APP) by BACE1 and γ-secretase. Substantial evidence points to aggregation and deposition of certain isoforms of amyloid β peptide in the brain being causal to neurodegeneration and dementia typical of AD. There are two major isoforms of Aβ which are monitored as a biomarker to gain early read on Aβ aggregation: Aβ340 and Aβ342. Increased extracellular accumulation of amyloid β peptide results in the formation of amyloid β peptide oligomers, cerebral amyloid plaques, neurodegeneration, and ultimately brain atrophy, all of which play a pivotal role in AD neuropathological hallmarks.
The reagents for the cell amyloid beta production assay were prepared as follows.
7PA2 CHO cells (licensed from Dr. Dennis Selkoe's laboratory) were plated into 96-well plates at a density of 50,000 cells per […] complete medium (DMEM medium containing 10% fetal bovine serum, L-glutamine, penicillin/streptomycin and 200 μg/ml of G418). Cells were incubated for 16-18 hours in complete medium and the culture medium was aspirated and discarded. Fresh complete medium containing test articles or positive control, LY2886721, within drug concentration range from 0.01 to 100 nM or complete medium only (controls) was added for 12 hours, and the cell culture medium was assayed directly or following a dilution with complete cell culture medium and frozen at −80° C. until it could be assayed for Aβ38, Aβ40 and Aβ42 content using an MSD multiplex electrochemiluminescence immunoassay.
In the Meso Scale Discovery electrochemiluminescence immunoassay, on a block plate, add 150 μL of Diluent 35 to each well, seal the plate with an adhesive plate seal and incubate with shaking for 1 hour at room temperature. Wash and then add detection antibody solution and samples. Wash the plate 3 times with at least 150 μL/well of wash buffer. […] Add 150 μL of 2× Read Buffer T to each well. Read the plate on the MSD imager. No incubation in read buffer is required before reading the plate. […]

[2] = biological target: pepsin (activated recombinant human pepsinogen A) (Homo sapiens (Human), UniProt P0DJD9); test: Pepsin activity assay; type: biochemical
Sequence of pepsin (activated recombinant human pepsinogen A) (P0DJD9 63-388): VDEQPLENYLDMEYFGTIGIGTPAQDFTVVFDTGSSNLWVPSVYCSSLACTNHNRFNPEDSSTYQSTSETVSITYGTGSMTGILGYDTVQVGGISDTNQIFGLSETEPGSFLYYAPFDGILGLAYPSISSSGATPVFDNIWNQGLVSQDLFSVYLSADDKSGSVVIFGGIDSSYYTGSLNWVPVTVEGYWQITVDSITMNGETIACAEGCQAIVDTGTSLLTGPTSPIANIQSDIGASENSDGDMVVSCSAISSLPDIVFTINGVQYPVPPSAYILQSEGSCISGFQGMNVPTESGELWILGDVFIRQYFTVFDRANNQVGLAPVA
Protocol: 30 mM stocks of the experimental inhibitor compounds were prepared in DMSO. A 10 mM concentration of the inhibitor was prepared by diluting the 30 mM stock 3-fold in DMSO (30 μl of the [30 mM]:60 μl DMSO). 10-fold serial dilutions of 10 mM and 30 mM stocks were made on a dilution plate..
The pepstatin A inhibitor was received from Tocris Bioscience as 10 mg of lyophilized powder. DMSO was used to reconstitute the powder to a 10 mM concentration, which was aliquoted and stored at −20° C. A 40 μl volume of the 10 mM stock was thawed before use. 10-fold serial dilutions of 10 mM and 3 mM stocks were made in DMSO on a dilution plate.
Using a multichannel pipette, take a 2 μl volume of the diluted samples from the dilution plate into a new polypropylene 96-well plate. […]
After the enzyme addition, the substrate was added to each well in 50 μl volumes. […] The plate was immediately sealed and placed on a shaker set to 350 rpm for approximately 30 sec prior to reading in the Polar Star plate reader at room temperature with the excitation wavelength set at 320 nm, the emission wavelength set at 405 nm. Readings were taken every 41 seconds for approximately 25 minutes.
The selected BACE1 inhibitors in accordance with examples of the invention were then determined for Pepsin activity and target selectivity ratio (Pepsin IC50/BACE1 IC50).

[3] = test system: Aβ38, Aβ40 and Aβ42 in CSF; test: Efficacy study in monkeys: Aβ biomarkers in CSF after single oral administration; type: in vivo, cynomolgus monkeys; conditions: Monkey CSF
Excerpt: Certain isoforms of amyloid β peptide (AR), such as Aβ338, Aβ340 and Aβ342 have been established as relevant biomarkers that reflect BACE1 activity and have been exploited to establish translational relationships between different cellular assays and animal models. In this efficacy study, mammals were used to assess amyloid β reduction with BACE1 inhibitors. In a clinical setting, plasma and cerebrospinal fluid (CSF) are the accessible compartments to measure soluble amyloid β levels to determine target profile. It is important to analyze plasma and CSF levels which relate to changes in brain amyloid β levels. The concentration of BACE1 inhibitors and their time-dependent reduction of plasma, CSF and brain amyloid β levels were investigated following intravenous and oral administrations of BACE1 inhibitors.
a (ii). Formulation for PO administration: 5% (v/v) PEG400+95% (v/v) of 1% (w/v) methyl cellulose in water (the viscosity of methyl cellulose is 20 g/L, 20° C., cPa·s: 350.0-550.0). The test article solutions were prepared by dissolving the compound in PEG400 followed by the addition of the aqueous solution to the final volume.
For the oral formulation of a BACE1 inhibitor in the monkey efficacy study (at the dose of 20 mg/kg with the concentration of 2 mg/ml)
1) Weighed […] of the selected BACE1 inhibitors into a clean vial;
2) Added 2.826 mL of PEG400 into the tube containing the compound. Then vortexed for 5 min and sonicated for 45 min;
3) Added 53.688 mL of 1% MC in water into the tube containing the compound. Then vortexed for 4 min and sonicated for 4 min; and
4) Adjusted the pH to the physiological value by using 1N NaOH.
Several studies have shown that drug transport into the CNS may be more similar between humans and primates. […] To explore the mechanism of BACE1 compounds, the compounds were tested using this in vivo study. […] The monkey Aβ reduction study usually takes 3 weeks.
The time-course profiles of neurodegeneration biomarkers were determined following single oral administration of the selected BACE1 inhibitors to male cynomolgus monkeys. Blood samples were collected from all animals via the saphenous vein or cephalic vein at 0 (pre-dose), 0.5, 1, 3, 6, 8, 12 and 24 hr post-dose into test tubes containing potassium ethylenediaminotetraacetic acid (K2EDTA). CSF samples were collected via a pre-implanted cannula at the foramina occipital magnum site at 0 (pre-dose), 3, 6, 12 and 24 hr post-dose.
Plasma was separated from the blood by centrifugation at 4° C. and stored at −80° C. until analyzing. The biomarkers of Aβ38, Aβ40 and Aβ42 in CSF were quantified using Meso Scale Discovery (MSD) multiplex electrochemiluminescence immunoassay according to the manufacturer's instructions. The plates were first blocked with 150 μL of Diluent 35 for 1 hour at room temperature with constant shaking at 600 rpm. After washing three times with 200 μL washing buffer, 25 μL of 1× detection antibody solution, plus Aβ40 blocker, 25 μL of seven standards, zero standard and four-fold diluted samples were added to the assay plate. The plate was incubated for 2 hours at room temperature, with constant shaking at 600 rpm. Upon finishing, the plate was washed three times with washing buffer and read in a Sector Imager 6000 (MSD) immediately after addition of 150 μL of 2× Read Buffer T. Aβ concentrations were calculated with reference to the standard curves of each individual peptide and expressed as pg/mL using SoftMax Pro GXP 5.4.4.

IC50 [2]	SMILES	IC50 ([1]; Cricetulus griseus, CHO, 12 h)	% of maximum Aβ40 inhibition over 24 hours [3]	IC50 [1]
3140 nM	CC#Cc1ccc2sc3ccc([C@]4(C)CS(=O)(=O)C(C)(C)C(N)=N4)cc3c2c1 [Example 103, (R)-5-Amino-3,6,6-trimethyl-3-(8-(prop-1-yn-1-yl)dibenzo[b,d]thiophen-2-yl)-3,6-dihydro-2H-1,4-thiazine 1,1-dioxide]	13 nM	45.9%	–
4380 nM	CC#Cc1ccc2sc3cc(F)c([C@]4(C)CS(=O)(=O)C(C)(C)C(=N)N4)cc3c2c1 [Example 109, (R)-5-Amino-3-(3-fluoro-8-(prop-1-yn-1-yl)dibenzo[b,d]thiophen-2-yl)-3,6,6-trim ethyl-3,6-dihydro-2H-1,4-thiazine 1,1-dioxide]	5.5 ± 1.95 nM	37.3%	5 nM
